{
  "source": "patent US10968203B2",
  "about": "“Pyrimidinyl-pyridyloxy-naphthyl compounds and methods of treating IRE1-related diseases and disorders” (Genentech, Inc., priority 2017, dated 2021)",
  "key": {"[1]": {"test_system": "cells", "settings": "high levels of 4μ8C; cited from earlier work"}, "[2]": {"test_system": "XBP1s-luc 293 LUC", "experiment": "cellular PD assay, XBP1s-LUC reporter (Example 903)", "type": "cell-based", "settings": "Table 2; read-out: XBP1s-luc 293 LUC (IC50)", "how_it_was_run": "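Cellular IRE1α pathway activity was quantified from the luciferase signal of an XBP1-Luc reporter, where the luciferase fusion is in frame and expressed only from the spliced XBP1 transcript.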"}},
  "note": "Structures can show the parent of a compound that is named as a salt.",
  "data": [
    {"smiles": "Cc1cc(=O)oc2c(C=O)c(O)ccc12", "note": "[Example 4μ8C]", "values": [
      {"measurement": "toxicity in cells", "setting": "[1]", "value": "no measurable toxicity"}
    ]},
    {"smiles": "Cc1c(F)c(NS(=O)(=O)CCC(F)(F)F)c2ccccc2c1Oc1ncccc1-c1ccnc(N[C@H]2CC[C@H](N)CC2)n1", "note": "[Example 483, N-(4-((3-(2-(((1r,4r)-4-Aminocyclohexyl)amino)pyrimidin-4-yl)pyridin-2-yl)oxy)-2-fluoro-3-methylnaphthalen-1-yl)-3,3,3-trifluoropropane-1-sulfonamide]", "values": [
      {"measurement": "IC50", "setting": "[2]", "value": 146, "unit": "nM"}
    ]},
    {"smiles": "Cc1ccc2c(NS(=O)(=O)CCC(C)(F)F)c(F)ccc2c1Oc1ncccc1-c1ccnc(N[C@@H]2CNC[C@H](C)C2)n1", "note": "[Example 485, 3,3-Difluoro-N-[2-fluoro-6-methyl-5-[[3-[2-[[(3S,5R)-5-methyl-3-piperidyl]amino]pyrimidin-4-yl]-2-pyridyl]oxy]-1-naphthyl]butane-1-sulfonamide hydrochloride]", "values": [
      {"measurement": "IC50", "setting": "[2]", "value": 6, "unit": "nM"}
    ]},
    {"smiles": "CCC(F)(F)CS(=O)(=O)Nc1c(F)ccc2c(Oc3ncccc3-c3ccnc(N[C@@H]4CNC[C@H](C)C4)n3)c(C)ccc12", "note": "[Example 486, 2,2-Difluoro-N-[2-fluoro-6-methyl-5-[[3-[2-[[(3S,5R)-5-methyl-3-piperidyl]amino]pyrimidin-4-yl]-2-pyridyl]oxy]-1-naphthyl]butane-1-sulfonamide hydrochloride]", "values": [
      {"measurement": "IC50", "setting": "[2]", "value": 3, "unit": "nM"}
    ]},
    {"smiles": "Cc1ccc2c(NS(=O)(=O)CC3(F)CC3)c(F)ccc2c1Oc1ncccc1-c1ccnc(N[C@@H]2CNC[C@H](C)C2)n1", "note": "[Example 487, N-(2-Fluoro-6-methyl-5-((3-(2-(((3S,5R)-5-methylpiperidin-3-yl)amino)pyrimidin-4-yl)pyridin-2-yl)oxy)naphthalen-1-yl)-1-(1-fluorocyclopropyl)methanesulfonamide hydrochloride]", "values": [
      {"measurement": "IC50", "setting": "[2]", "value": 9, "unit": "nM"}
    ]},
    {"smiles": "Cc1ccc2c(NS(=O)(=O)Cc3ccccn3)c(F)ccc2c1Oc1ncccc1-c1ccnc(N[C@H]2CCCNC2)n1", "note": "[Example 494, (S)—N-(2-Fluoro-6-methyl-5-((3-(2-(piperidin-3-ylamino)pyrimidin-4-yl)pyridin-2-yl)oxy)naphthalen-1-yl)-1-(pyridin-2-yl)methanesulfonamide hydrochloride]", "values": [
      {"measurement": "IC50", "setting": "[2]", "value": 12.5, "unit": "nM"}
    ]}
  ]
}
